Measured values: US12195427B2, “MASP-2 inhibitors and methods of use” (priority 2018, dated 2025)

Molecular target: MASP-2 CCP2-SP (Homo sapiens (Human), UniProt O00187)
Assay: MASP-2 co-crystallization, X-ray crystallography and structure analysis (H-bonds, van der Waals contacts);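 for Ligand-pharmacophore element distance, pharmacophore element C2: distance from averaged pharmacophore element to bound ligand; missing value means element absent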;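 for Ligand-pharmacophore element distance, pharmacophore element C3: distance from averaged pharmacophore element to bound ligand; missing value means element absent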;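 for Ligand-pharmacophore element distance, pharmacophore element C4: distance from averaged pharmacophore element to bound ligand; missing value means element absent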;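 for Ligand-pharmacophore element distance, pharmacophore element C5: distance from averaged pharmacophore element to bound ligand; missing value means element absent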
Set-up: van der Waals contact distance, MASP-2 HIS 483 atom CD2 / van der Waals contact distance, MASP-2 HIS 483 atom NE2 / van der Waals contact distance, SER 654 C to compound atom / van der Waals contact distance, SER 654 O to compound atom / van der Waals contact distance, TRP 655 C to compound atom / van der Waals contact distance, MASP-2 GLY 528 atom CA / van der Waals contact distance TRP 655 atom CZ3 / van der Waals contact distance TRP 655 atom N / van der Waals contact distance TRP 655 atom CE3 / van der Waals contact distance GLY 656 atom C / van der Waals contact distance GLY 656 atom CA / van der Waals contact distance GLY 656 atom O / van der Waals contact distance, MASP-2 TYR 607 atom CD1 / van der Waals contact distance, MASP-2 PRO 606 atom O / d(C3,CA1) / d(CA1,N1)2 / d(H4,O1) / d(H4,O2) / d(O1,O2) / d(CA1,O2) / d(CA6,O1) / d(CA6,O2) / d(CA1,C5) / d(O2,H3) / d(N2,C2) / d(CA5,N2) / d(N2,C4) / d(N2,C6) / d(N2,CA3) / d(N2,O3) / d(O4,H2): unit not given beside the values
Details: for Ligand-pharmacophore element distance, pharmacophore element C2 / Ligand-pharmacophore element distance, pharmacophore element C3 / Ligand-pharmacophore element distance, pharmacophore element C4 / Ligand-pharmacophore element distance, pharmacophore element C5 / Ligand-pharmacophore element distance, pharmacophore element C6 / Ligand-pharmacophore element distance, pharmacophore element C7 / Ligand-pharmacophore element distance, pharmacophore element CA1 / Ligand-pharmacophore element distance, pharmacophore element CA2 / Ligand-pharmacophore element distance, pharmacophore element CA3 / Ligand-pharmacophore element distance, pharmacophore element CA4 / Ligand-pharmacophore element distance, pharmacophore element CA5 / Ligand-pharmacophore element distance, pharmacophore element CA6: Table A4-1; for d(N2,C2) / d(N2,CA2) / d(O2,H3) / d(O2,N2): Table A5-2 pharmacophore distance, S3/S4 region; for a(N1, CA1, O1) b): Methyl-amino-pyridine compounds; for a(O1, O2, H3) / a(O1, O2, N2) / a(O2, N2, C2) / a(O2, N2, CA2): Table A6-2 pharmacophore angle; for Pharmacophore torsion angle a(O1, O2, N2, CA2) / Pharmacophore torsion angle a(O1, O2, N2, CA4): Table A7-2
In short: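 Soaked crystals of recombinant CCP2-SP (E. coli) yield the structures, phased by molecular replacement on 1Q3X pieces. Hydrophobic or nonbonded contacts can also cover atom pairs that are potential hydrogen bonds.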

[1] = Table A5-1 pharmacophore: distance between elements, S2/S1 region
[2] = Table A7-1, between pharmacophore elements of the bound compound
[3] = between pharmacophore elements of the bound compound

Sequence of MASP-2 CCP2-SP (O00187 445-686): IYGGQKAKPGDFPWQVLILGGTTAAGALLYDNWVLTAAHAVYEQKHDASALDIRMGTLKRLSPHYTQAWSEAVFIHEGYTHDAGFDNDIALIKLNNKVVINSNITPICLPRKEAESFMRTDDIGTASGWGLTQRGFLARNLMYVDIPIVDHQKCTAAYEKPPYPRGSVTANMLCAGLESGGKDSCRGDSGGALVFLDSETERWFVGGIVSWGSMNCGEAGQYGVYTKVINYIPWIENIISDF
Sequence of MASP-2 CCP2-SP (O00187 364-432 partner): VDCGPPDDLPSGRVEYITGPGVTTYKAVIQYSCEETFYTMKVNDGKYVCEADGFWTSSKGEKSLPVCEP

Row | Compound | Ligand-pharmacophore element distance, pharmacophore element C2 | Ligand-pharmacophore element distance, pharmacophore element C3 | Ligand-pharmacophore element distance, pharmacophore element C4 | Ligand-pharmacophore element distance, pharmacophore element C5 | Ligand-pharmacophore element distance, pharmacophore element C6 | Ligand-pharmacophore element distance, pharmacophore element C7 | Ligand-pharmacophore element distance, pharmacophore element CA1 | Ligand-pharmacophore element distance, pharmacophore element CA2 | Ligand-pharmacophore element distance, pharmacophore element CA3 | Ligand-pharmacophore element distance, pharmacophore element CA4 | Ligand-pharmacophore element distance, pharmacophore element CA5 | Ligand-pharmacophore element distance, pharmacophore element CA6 | d(CA1,O1) [1] | d(CA1,O2) [1] | d(H4,O1) [1] | d(H4,O2) [1] | d(O1,O2) [1] | d(N2,CA2) | d(O2,H3) | d(O2,N2) | other results
1 | Cc1nc(N)ccc1CNC(=O)[C@H](C)NC(=O)[C@H]1C[C@@H](c2cccc3ccccc23)CCN1.Cl.Cl [1297_4] | 0.31 | 0.18 | 0 | 0 | 0 | 0 | 0.48 | 0.24 | 0 | 0.98 | 0 | 0 | 4.44 | 3.67 | 4.35 | 3.67 | 3.50 | 5.72 | 4.02 | 2.76 | d(C3,CA1) [1]: 2.87; d(CA1,N1)2 [1]: 1.37; d(N2,C2): 1.47; a(C3, CA1, O1) (Table A6-1 pharmacophore angle): 149.60; a(CA1, O1, O2) (Table A6-1 pharmacophore angle): 103.60; a(O1, O2, H4) (Table A6-1 pharmacophore angle): 129.06; a(N1, CA1, O1) b) (Table A6-1 pharmacophore angle): 174.41; a(O1, O2, H3): 145.24; a(O1, O2, N2): 143.80; a(O2, N2, C2): 131.10; a(O2, N2, CA2): 156.08; Pharmacophore torsion angle a(C3, CA1, O1, H4) [2]: 28.23; Pharmacophore torsion angle a(H4, O1, O2, H3) [2]: 51.40; Pharmacophore torsion angle a(H4, O1, O2, N2) [2]: 142.36; Pharmacophore torsion angle a(N1, CA1, O1, H4) [2]: 26.25; Pharmacophore torsion angle a(O1, H4, O2, CA1) [2]: −89.51; Pharmacophore torsion angle a(O1, O2, N2, C2) [2]: 110.29; Pharmacophore torsion angle a(O1, O2, N2, CA2) [3]: 126.11; Pharmacophore torsion angle a(O1, O2, N2, CA4) [3]: 105.94
2 | Cc1nc(N)ccc1CNC(=O)[C@H](C)NC(=O)[C@H]1C[C@@H](c2cccc3ccccc23)CCN1.Cl.Cl [1297_5] | 0.24 | 0.29 | 0 | 0 | 0 | 0 | 0.44 | 0.07 | 0 | 1.22 | 0 | 0 | 4.59 | 3.88 | 4.56 | 3.82 | 3.43 | 5.69 | 4.06 | 2.67 | d(C3,CA1) [1]: 2.86; d(CA1,N1)2 [1]: 1.38; d(N2,C2): 1.43; a(C3, CA1, O1) (Table A6-1 pharmacophore angle): 150.41; a(CA1, O1, O2) (Table A6-1 pharmacophore angle): 102.43; a(O1, O2, H4) (Table A6-1 pharmacophore angle): 132.64; a(N1, CA1, O1) b) (Table A6-1 pharmacophore angle): 174.11; a(O1, O2, H3): 146.79; a(O1, O2, N2): 147.10; a(O2, N2, C2): 132.77; a(O2, N2, CA2): 157.05; Pharmacophore torsion angle a(C3, CA1, O1, H4) [2]: 30.12; Pharmacophore torsion angle a(H4, O1, O2, H3) [2]: 47.86; Pharmacophore torsion angle a(H4, O1, O2, N2) [2]: 144.38; Pharmacophore torsion angle a(N1, CA1, O1, H4) [2]: 10.41; Pharmacophore torsion angle a(O1, H4, O2, CA1) [2]: −86.41; Pharmacophore torsion angle a(O1, O2, N2, C2) [2]: 111.81; Pharmacophore torsion angle a(O1, O2, N2, CA2) [3]: 122.50; Pharmacophore torsion angle a(O1, O2, N2, CA4) [3]: 101.00
3 | Cc1nc(N)ccc1CNC(=O)C(C)NC(=O)C1CC(c2cccc3ccccc23)CCN1.Cl.Cl (centres unmarked) [1297_6] | 0.33 | 0.4 | 0 | 0 | 0 | 0 | 0.36 | 0.24 | 0 | 1.14 | 0 | 0 | 4.73 | 4.23 | 4.65 | 4.26 | 3.53 | 5.72 | 4.15 | 2.83 | d(C3,CA1) [1]: 2.86; d(CA1,N1)2 [1]: 1.38; d(N2,C2): 1.44; a(C3, CA1, O1) (Table A6-1 pharmacophore angle): 150.35; a(CA1, O1, O2) (Table A6-1 pharmacophore angle): 105.49; a(O1, O2, H4) (Table A6-1 pharmacophore angle): 133.61; a(N1, CA1, O1) b) (Table A6-1 pharmacophore angle): 173.49; a(O1, O2, H3): 144.79; a(O1, O2, N2): 141.32; a(O2, N2, C2): 116.76; a(O2, N2, CA2): 154.05; Pharmacophore torsion angle a(C3, CA1, O1, H4) [2]: 27.46; Pharmacophore torsion angle a(H4, O1, O2, H3) [2]: 43.22; Pharmacophore torsion angle a(H4, O1, O2, N2) [2]: 150.19; Pharmacophore torsion angle a(N1, CA1, O1, H4) [2]: 5.20; Pharmacophore torsion angle a(O1, H4, O2, CA1) [2]: −89.84; Pharmacophore torsion angle a(O1, O2, N2, C2) [2]: 132.97; Pharmacophore torsion angle a(O1, O2, N2, CA2) [3]: 131.04; Pharmacophore torsion angle a(O1, O2, N2, CA4) [3]: 109.63
4 | C[C@H](NC(=O)[C@H]1C[C@H](Cc2ccccc2)CN1)C(=O)NCc1ccc(C(=N)N)cc1.Cl.Cl [1306_1] | 0 | 0 | 0 | 0 | 0 | 0 | 0.05 | 0.6 | 0 | 0 | 0 | 0 | 4.38 | 4.22 | 4.25 | 5.09 | 3.06 | 6.06 | 5.26 | 2.66 | d(CA1,N1) [1]: 3.54; a(CA1, O1, O2) (Table A6-1 pharmacophore angle): 107.94; a(O1, O2, H4) (Table A6-1 pharmacophore angle): 143.05; A(N1, CA1, O1) a) (Table A6-1 pharmacophore angle, all compounds with protonatable center N1 except Methyl-amino-pyridine): 158.44; a(O1, O2, H3): 152.11; a(O1, O2, N2): 135.46; a(O2, N2, CA2): 155.89; Pharmacophore torsion angle a(H4, O1, O2, H3) [2]: 36.21; Pharmacophore torsion angle a(H4, O1, O2, N2) [2]: 120.80; Pharmacophore torsion angle a(N1, CA1, O2, H4) [2]: 106.51; Pharmacophore torsion angle a(O1, H4, O2, CA1) [2]: −170.32; Pharmacophore torsion angle a(O1, O2, N2, CA2) [3]: 136.58
